Laboratory results: the NIST ThermoML archive (doi:10.1016/j.tca.2015.12.010)
Numbers after ± are expanded uncertainties.

Assays:
[1] = Crystal
[2] = Molar enthalpy of transition or fusion; conditions: Crystal; DSC

Normal melting temperature ([1]; DTA) [°C]	Normal melting temperature ([1]; Infrared thermography) [°C]	Molar enthalpy of transition or fusion [2] [kcal/mol]	SMILES
187.30 ± 0.5	189.50 ± 10	15.5 ± 0.382	OC[C@@H](O)[C@H](O)[C@H](O)[C@@H](O)CO [dulcitol]
118.90 ± 1.1	121.20 ± 10	9.92 ± 0.263	OC[C@@H](O)[C@@H](O)CO [meso-1,2,3,4-butanetetrol]

Continued, compound first:

SMILES	Normal melting temperature ([1]; DTA) [°C]	Normal melting temperature ([1]; Infrared thermography) [°C]	Molar enthalpy of transition or fusion [2] [kcal/mol]
OC[C@@H](O)[C@@H](O)[C@H](O)[C@H](O)CO [D-mannitol]	167.10 ± 2.1	166.00 ± 10	13.8 ± 0.359
OC[C@@H](O)[C@@H](O)[C@@H](O)CO [SRS-1,2,3,4,5-pentanepentol]	100.00 ± 1.1	101.60 ± 10	8.44 ± 0.217
OC[C@@H](O)[C@H](O)[C@@H](O)CO [xylitol]	95.10 ± 1.1	99.00 ± 10	9.13 ± 0.263
